From patent US6884882B1, “2′-deoxyuridine derivatives and hydrogels formed therewith” (Postech Foundation, priority 2004, dated 2005)
Entries after “also recorded” stand apart in the source; their conditions may differ.

Tests used:
Assay type in all cases: physicochemical
[1] = Gelation test (stable-to-inversion-of-the-container method) in water; settings: for State: 2 wt % in water, dissolved by sonication and heating, cooled at room temperature for 20 minutes, vessel inverted; for Minimum gel concentration: minimum concentration at which a gel was formed in water; for gelation ability: in water, judged from Table 1
Procedure: In order to determine the extent of gelation of the 2′-deoxyuridine derivative of the present invention, the “stable-to-inversion-of-the-container” method was performed (see F. M. Menger and K. L Caran., J. Am. Chem. Soc., 122, 11679, 2000).
Each of 2′-deoxyuridine derivatives prepared in Example 1 was mixed with water in an amount corresponding to a concentration of 2 wt %, completely dissolved by sonication and heating, and then cooled at room temperature for 20 minutes to induce the formation of a gel. Then, the vessel containing the gel was inverted to see whether or not the content poured out.
Further, the minimum concentration at which a gel was formed (hereinafter, minimum gel concentration) was measured for each of the 2′-deoxyuridine derivatives.

[2] = Observation of inner structures of gels by Scanning Electron Microscopy (SEM); settings: for gel structure in SEM image: gel prepared by the method of Example 2, lyophilized, platinum coated
Procedure: The aggregation mode of the gel formed with the 2′-deoxyurindine derivative was observed by Scanning Electron Microscopy (SEM). Gels were prepared using the 2′-deoxyuridine derivatives prepared in 1-4), 1-7), 1-9) and 1-10) by the method of Example 2. Each of the gels was heated to obtain a sol, and a small amount of the sol was converted to a gel cake, which was lyophilized under a vacuum at the liquid nitrogen temperature to remove the solvent, coated with platinum, and examined by SEM.

[3] = Analysis of thermal stability of hydrogel by differential scanning calorimetry; settings: DSC, 30 to 220° C., FIG. 3
Procedure: In order to examine the thermal stability of the 2′-deoxyuridine derivative of the present invention, 1 to 4 mg of the derivative prepared in 1-9) was shaped in the form of a pellet, and differential scanning calorimetry was performed therewith at a temperature ranging from 30 to 220° C.

Structure (SMILES) | State [1] | Minimum gel concentration [1] | gel structure in SEM image [2] | gelation ability [1] | gel structure in SEM image on lowering the concentration ([2]; concentration lowered from 2 to 0.25 wt %, FIG. 2) | melting point peak of the gel phase [3] | melting point peak of the solid phase [3]
O=c1[nH]c(=O)n([C@H]2C[C@H](O)[C@@H](CO)O2)cc1-c1cn(Cc2ccccc2)nn1 [1-4), 2′-deoxy-5-[1-(phenylmethyl)-1H-1,2,3-triazol-4-yl]-uridine] | White opaque gel | 0.3 wt % | lamellar structure | – | – | – | –
Cc1ccccc1Cn1cc(-c2cn([C@H]3C[C@H](O)[C@@H](CO)O3)c(=O)[nH]c2=O)nn1 [1-5), 2′-deoxy-5-[1-((o-methylphenyl)methyl)-1H-1,2,3-triazol-4-yl]-uridine] | Unstable white opaque gel | 3 wt % | – | – | – | – | –
Cc1cccc(Cn2cc(-c3cn([C@H]4C[C@H](O)[C@@H](CO)O4)c(=O)[nH]c3=O)nn2)c1 [1-6), 2′-deoxy-5-[1-((m-methylphenyl)methyl)-1H-1,2,3-triazol-4-yl]-uridine] | Unstable white opaque gel | 1 wt % | – | – | – | – | –
Cc1ccc(Cn2cc(-c3cn([C@H]4C[C@H](O)[C@@H](CO)O4)c(=O)[nH]c3=O)nn2)cc1 [1-7), 2′-deoxy-5-[1-((p-methylphenyl)methyl)-1H-1,2,3-triazol-4-yl]-uridine] | White opaque gel | 0.6 wt % | lamellar structure | good gelation ability | – | – | –
CCc1ccccc1Cn1cc(-c2cn([C@H]3C[C@H](O)[C@@H](CO)O3)c(=O)[nH]c2=O)nn1 [1-8), 2′-deoxy-5-[1-((o-ethylphenyl)methyl)-1H-1,2,3-triazol-4-yl]-uridine] | Unstable white opaque gel | 2 wt % | – | – | – | – | –
CCc1ccc(Cn2cc(-c3cn([C@H]4C[C@H](O)[C@@H](CO)O4)c(=O)[nH]c3=O)nn2)cc1 [1-9), 2′-deoxy-5-[1-((p-ethylphenyl)methyl)-1H-1,2,3-triazol-4-yl]-uridine] | White opaque gel | 0.2 wt % | fiber structure | good gelation ability; also recorded: best gelation ability | looser fiber structure having a larger void volume | 201 °C | 200 °C
CCCCc1ccc(Cn2cc(-c3cn([C@H]4C[C@H](O)[C@@H](CO)O4)c(=O)[nH]c3=O)nn2)cc1 [1-10), 2′-deoxy-5-[1-((p-butylphenyl)methyl)-1H-1,2,3-triazol-4-yl]-uridine] | White opaque gel | 0.8 wt % | lamellar structure | good gelation ability | – | – | –
